Measured values: US20240239766A1, “3-AMINO PIPERIDYL SODIUM CHANNEL INHIBITORS” (Genentech, Inc., priority 2021, published 2024)
Counter-ions that a name gives are not always drawn.

The molecules below were run against hNav1.7 (Homo sapiens (Human), UniProt Q15858) (assay: Patch voltage clamp electrophysiology assay (EP), Syncropatch 384PE, CHO cells expressing Nav1.7). Conditions: holding potential −50 mV; 7.5 min compound incubation; read-out: EP SP hNav1.7 EVO (IC50).
Assay type: cell-based
Description: Example 101c: Electrophysiological Assay (EP) (In Vitro Assay)
Patch voltage clamp electrophysiology allows for the direct measurement and quantification of block of voltage-gated sodium channels (NaV's), and allows the determination of the time- and voltage-dependence of block which has been interpreted as differential binding to the resting, open, and inactivated states of the sodium channel (Hille, B., Journal of General Physiology (1977), 69: 497-515).
The following voltage clamp electrophysiology studies are performed on representative compounds using cells heterologously expressing Nav1.7 or Nav1.5 channels. cDNAsfor Nav1.7 (NM_002977) and Nav1.5 (AC137587) are stably expressed in Chinese Hamstr Ovary (CHO) cells and CHL (Chinese Hamster Lung) cells respectively. Sodium currents are measured in the whole-cell configuration using Syncropatch 384PE (Nanlon Technologies, Germany). 1NPC®-384 chips with custom medium resistance and single hole mode are used. Internal solution consists of (in mM): […], 10 CsCl, 20 EGTA, and 10 Hepes (pH adjusted to 7.2); and external solution contains (in mM): 60 NMDG, 80 NaCl, 4 KCl, 1 MgCl2, 2 CaCl2), 2 D-Glucose monohydrate, 10 Hepes (pH adjusted to 7.4 with NaOH).
After system flushing, testing compounds are dissolved in external solution containing 0.1% Pluronic F-127. The chip is moved into the measuring head and the instrument primes the chip with external and internal solutions. 10 μl cells are added to the chip from a cell hotel, and a negative pressure of −50 mBar is applied to form a seal. Following treatment with seal enhancer solution and wash-off with external solution, negative pressure of −250 mbar is applied for 1 second to achieve the whole-cell configuration, followed by three washing steps in external solution. 20 μl of compounds is added to 40 μl in each well (1:3 dilution of compounds), and after mixing, 20 μl is removed so the volume is retained at 40 ul. After approximately 13 minutes recordings, 20 μl/well of 2 uM TTX, or 333 uM Tetracaine (for Nav1.5) is added to achieve full block.
For voltage protocol, an holding potential of −50 mV is applied during the whole experiment. A depolarizing step is applied to −10 mV for 10 ms, followed by a hyperpolarization step to −150 mV for 20 ms to allow channel recovery from inactivation. A second depolarizing step is applied from −150 mV to −10 mV for 10 ms, where currents are measured to derive blocking effects of compounds. Inhibition is determined based on 7.5 min of compound incubation.

hNav1.7, sequence (Q15858 other isoform, or with tags, fused parts or gaps): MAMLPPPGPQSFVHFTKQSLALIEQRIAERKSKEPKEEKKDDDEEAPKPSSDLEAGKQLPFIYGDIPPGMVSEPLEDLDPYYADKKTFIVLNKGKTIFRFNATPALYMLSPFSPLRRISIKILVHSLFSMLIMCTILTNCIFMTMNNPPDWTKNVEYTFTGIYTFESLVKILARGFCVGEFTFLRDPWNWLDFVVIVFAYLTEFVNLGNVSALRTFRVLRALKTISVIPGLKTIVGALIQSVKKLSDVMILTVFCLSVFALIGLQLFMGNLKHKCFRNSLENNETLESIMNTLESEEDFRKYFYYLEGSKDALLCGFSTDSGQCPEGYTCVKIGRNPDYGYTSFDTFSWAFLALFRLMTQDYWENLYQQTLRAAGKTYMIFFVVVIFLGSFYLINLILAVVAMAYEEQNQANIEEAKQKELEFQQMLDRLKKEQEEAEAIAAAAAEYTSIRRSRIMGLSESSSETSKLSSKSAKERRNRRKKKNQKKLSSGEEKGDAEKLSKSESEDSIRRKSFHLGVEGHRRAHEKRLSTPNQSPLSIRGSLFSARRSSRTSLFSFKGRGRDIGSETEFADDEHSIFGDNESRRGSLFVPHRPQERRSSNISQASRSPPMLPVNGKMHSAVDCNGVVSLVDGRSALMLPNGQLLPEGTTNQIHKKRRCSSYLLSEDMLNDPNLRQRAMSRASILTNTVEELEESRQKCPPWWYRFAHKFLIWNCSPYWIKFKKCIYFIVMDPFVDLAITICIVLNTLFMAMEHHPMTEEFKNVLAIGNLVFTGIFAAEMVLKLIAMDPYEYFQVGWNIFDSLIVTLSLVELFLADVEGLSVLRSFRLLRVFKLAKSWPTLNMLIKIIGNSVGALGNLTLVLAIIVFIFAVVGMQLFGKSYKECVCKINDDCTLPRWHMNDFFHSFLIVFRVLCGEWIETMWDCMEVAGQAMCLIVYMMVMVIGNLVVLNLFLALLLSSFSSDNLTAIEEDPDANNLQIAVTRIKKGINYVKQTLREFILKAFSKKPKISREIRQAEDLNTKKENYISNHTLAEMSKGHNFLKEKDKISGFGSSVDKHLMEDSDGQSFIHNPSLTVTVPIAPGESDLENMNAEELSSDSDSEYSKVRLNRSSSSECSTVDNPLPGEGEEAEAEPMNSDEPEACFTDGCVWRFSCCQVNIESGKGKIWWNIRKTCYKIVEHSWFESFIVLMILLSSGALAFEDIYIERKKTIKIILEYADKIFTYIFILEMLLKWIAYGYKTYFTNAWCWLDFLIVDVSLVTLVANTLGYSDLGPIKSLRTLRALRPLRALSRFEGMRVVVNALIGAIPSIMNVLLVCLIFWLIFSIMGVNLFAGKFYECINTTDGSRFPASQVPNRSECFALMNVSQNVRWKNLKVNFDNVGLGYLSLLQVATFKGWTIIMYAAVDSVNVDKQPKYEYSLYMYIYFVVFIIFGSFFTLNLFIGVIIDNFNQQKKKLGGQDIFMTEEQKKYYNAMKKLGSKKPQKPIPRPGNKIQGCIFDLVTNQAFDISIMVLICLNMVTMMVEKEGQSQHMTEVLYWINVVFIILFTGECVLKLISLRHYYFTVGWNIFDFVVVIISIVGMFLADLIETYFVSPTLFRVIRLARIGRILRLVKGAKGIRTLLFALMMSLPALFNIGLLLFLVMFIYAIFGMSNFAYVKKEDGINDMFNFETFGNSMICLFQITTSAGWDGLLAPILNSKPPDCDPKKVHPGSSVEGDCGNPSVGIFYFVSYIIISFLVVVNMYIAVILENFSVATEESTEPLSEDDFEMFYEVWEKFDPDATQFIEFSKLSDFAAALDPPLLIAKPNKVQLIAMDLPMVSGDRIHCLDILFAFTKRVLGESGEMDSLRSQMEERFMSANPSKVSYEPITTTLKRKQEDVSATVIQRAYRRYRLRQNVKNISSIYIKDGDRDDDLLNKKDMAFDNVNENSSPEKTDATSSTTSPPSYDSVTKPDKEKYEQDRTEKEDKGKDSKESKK

Going from CN1CC[C@H](N(C)[C@@]2(CCc3cccc(C(F)(F)F)c3)CCCN(c3cc(F)c(S(=O)(=O)Nc4ccncn4)c(F)c3)C2)C1 (single isomer, unassigned) [Example 45] to CN([C@H]1CCOC1)[C@@]1(CCc2cccc(C(F)(F)F)c2)CCCN(c2cc(F)c(S(=O)(=O)Nc3ccncn3)c(F)c2)C1 (single isomer, unassigned) [Example 80], the IC50 rises from 1.69 nM to 283 nM (170-fold).

Compared with CN(C)[C@@]1(CCc2ccc(C(F)(F)F)c(Cl)c2)CCCN(c2cc(F)c(S(=O)(=O)Nc3ccncn3)c(F)c2)C1 (single isomer, unassigned) [Example 50], CN(C)[C@]1(CCc2ccc(C(F)(F)F)c(Cl)c2)CCCN(c2cc(F)c(S(=O)(=O)Nc3ccncn3)c(F)c2)C1 (single isomer, unassigned) [Example 51] is 490-fold lower in IC50: 504 nM for the first, 1.03 nM for the second. The second is the more potent here.

Compared with CN(C)[C@@]1(CCc2cccc(C(F)(F)F)c2)CCCN(c2cc(F)c(S(=O)(=O)Nc3ncccn3)c(F)c2)C1 (single isomer, unassigned) [Example 52], CN(C)[C@]1(CCc2cccc(C(F)(F)F)c2)CCCN(c2cc(F)c(S(=O)(=O)Nc3ncccn3)c(F)c2)C1 (single isomer, unassigned) [Example 53] is 62-fold lower in IC50: 569 nM for the first, 9.23 nM for the second.

First: CN(C)[C@@]1(CCc2ccc(Cl)c(C(F)(F)F)c2)CCCN(c2cc(F)c(S(=O)(=O)Nc3ccncn3)c(F)c2)C1 (single isomer, unassigned) [Example 54]
Second: CN(C)[C@]1(CCc2ccc(Cl)c(C(F)(F)F)c2)CCCN(c2cc(F)c(S(=O)(=O)Nc3ccncn3)c(F)c2)C1 (single isomer, unassigned) [Example 55, formate]
The IC50 of the first is 410-fold higher: 362 nM for the first, 0.879 nM for the second. The second is the more potent here.

Going from CN(C)[C@@]1(CCc2ccc(C(F)(F)F)cc2Cl)CCCN(c2cc(F)c(S(=O)(=O)Nc3ccncn3)c(F)c2)C1 (single isomer, unassigned) [Example 56] to CN(C)[C@]1(CCc2ccc(C(F)(F)F)cc2Cl)CCCN(c2cc(F)c(S(=O)(=O)Nc3ccncn3)c(F)c2)C1 (single isomer, unassigned) [Example 57], the IC50 falls from 353 nM to 5.04 nM (70-fold).

Compared with CN(C)[C@@]1(CCc2cccc(C(F)(F)F)c2)CCCN(c2cc(F)c(S(=O)(=O)Nc3ccon3)c(F)c2)C1 (single isomer, unassigned) [Example 58], CN(C)[C@]1(CCc2cccc(C(F)(F)F)c2)CCCN(c2cc(F)c(S(=O)(=O)Nc3ccon3)c(F)c2)C1 (single isomer, unassigned) [Example 59] is 620-fold lower in IC50: 10000 nM for the first, 16 nM for the second. The second is the more potent here.

Going from CN(CCO)[C@@]1(CCc2cccc(C(F)(F)F)c2)CCCN(c2cc(F)c(S(=O)(=O)Nc3ccncn3)c(F)c2)C1 (single isomer, unassigned) [Example 60] to CN(CCO)[C@]1(CCc2cccc(C(F)(F)F)c2)CCCN(c2cc(F)c(S(=O)(=O)Nc3ccncn3)c(F)c2)C1 (single isomer, unassigned) [Example 61], the IC50 falls from 138 nM to 2.14 nM (64-fold). The second is the more potent here.

First: Cc1cc(N2CCC[C@](CCc3cccc(C(F)(F)F)c3)(N(C)C)C2)cc(C)c1S(=O)(=O)Nc1ccncn1 (single isomer, unassigned) [Example 62, formate]
Second: Cc1cc(N2CCC[C@@](CCc3cccc(C(F)(F)F)c3)(N(C)C)C2)cc(C)c1S(=O)(=O)Nc1ccncn1 (single isomer, unassigned) [Example 63, formate]
The IC50 of the first is 21-fold lower: 8.59 nM for the first, 177 nM for the second. The first is the more potent here.

Going from CN(C)[C@@]1(CCc2cccc(C(F)(F)F)c2)CCCN(c2cc(Cl)c(S(=O)(=O)Nc3ccncn3)c(Cl)c2)C1 (single isomer, unassigned) [Example 64] to CN(C)[C@]1(CCc2cccc(C(F)(F)F)c2)CCCN(c2cc(Cl)c(S(=O)(=O)Nc3ccncn3)c(Cl)c2)C1 (single isomer, unassigned) [Example 65], the IC50 rises from 1.54 nM to 69.4 nM (45-fold). The first is the more potent here.

Compared with Cc1cc(N2CCC[C@](CCc3cccc(C(F)(F)F)c3)(N(C)C)C2)cc(Cl)c1S(=O)(=O)Nc1ccncn1 (single isomer, unassigned) [Example 66, formate], Cc1cc(N2CCC[C@@](CCc3cccc(C(F)(F)F)c3)(N(C)C)C2)cc(Cl)c1S(=O)(=O)Nc1ccncn1 (single isomer, unassigned) [Example 67, formate] is 210-fold lower in IC50: 501 nM for the first, 2.4 nM for the second.

Going from CN(C)[C@@]1(CCc2c(Cl)cccc2Cl)CCCN(c2cc(F)c(S(=O)(=O)Nc3ccncn3)c(F)c2)C1 (single isomer, unassigned) [Example 68, formate] to CN(C)[C@]1(CCc2c(Cl)cccc2Cl)CCCN(c2cc(F)c(S(=O)(=O)Nc3ccncn3)c(F)c2)C1 (single isomer, unassigned) [Example 69, formate], the IC50 falls from 3140 nM to 27.7 nM (110-fold). The second is the more potent here.

Going from CN(C)[C@@]1(CCc2cccc(C(F)(F)F)c2)CCCN(c2ccc(S(=O)(=O)Nc3ccncn3)c(Cl)c2)C1 (single isomer, unassigned) [Example 70] to CN(C)[C@]1(CCc2cccc(C(F)(F)F)c2)CCCN(c2ccc(S(=O)(=O)Nc3ccncn3)c(Cl)c2)C1 (single isomer, unassigned) [Example 71, formate], the IC50 rises from 4.24 nM to 560 nM (130-fold).

Compared with Cc1cc(N2CCC[C@](CCc3cccc(C(F)(F)F)c3)(N(C)C)C2)ccc1S(=O)(=O)Nc1ccncn1 (single isomer, unassigned) [Example 72, formate], Cc1cc(N2CCC[C@@](CCc3cccc(C(F)(F)F)c3)(N(C)C)C2)ccc1S(=O)(=O)Nc1ccncn1 (single isomer, unassigned) [Example 73, formate] is 73-fold higher in IC50: 9.2 nM for the first, 673 nM for the second.

Going from CN(C)[C@]1(CCc2cccc(C(F)(F)F)c2)CN(c2cc(F)c(S(=O)(=O)Nc3ccncn3)c(F)c2)CC[C@H]1O (single isomer, unassigned) [Example 74, formate] to CN(C)[C@@]1(CCc2cccc(C(F)(F)F)c2)CN(c2cc(F)c(S(=O)(=O)Nc3ccncn3)c(F)c2)CC[C@@H]1O (single isomer, unassigned) [Example 75, formate], the IC50 falls from 1010 nM to 4.48 nM (230-fold). The second is the more potent here.

First: CN(C)[C@]1(CCc2cccc(C(F)(F)F)c2)CN(c2cc(F)c(S(=O)(=O)Nc3ccncn3)c(F)c2)CC[C@@H]1O (single isomer, unassigned) [Example 76, formate]
Second: CN(C)[C@@]1(CCc2cccc(C(F)(F)F)c2)CN(c2cc(F)c(S(=O)(=O)Nc3ccncn3)c(F)c2)CC[C@H]1O (single isomer, unassigned) [Example 77, formate]
The IC50 of the first is 12-fold higher: 30.8 nM for the first, 2.55 nM for the second. The second is the more potent here.

Going from CCN(C)[C@@]1(CCc2cccc(C(F)(F)F)c2)CCCN(c2cc(F)c(S(=O)(=O)Nc3ccncn3)c(F)c2)C1 (single isomer, unassigned) [Example 78] to CCN(C)[C@]1(CCc2cccc(C(F)(F)F)c2)CCCN(c2cc(F)c(S(=O)(=O)Nc3ccncn3)c(F)c2)C1 (single isomer, unassigned) [Example 79, formate], the IC50 falls from 974 nM to 7.56 nM (130-fold). The second is the more potent here.

Going from CN([C@@H]1CCOC1)[C@]1(CCc2cccc(C(F)(F)F)c2)CCCN(c2cc(F)c(S(=O)(=O)Nc3ccncn3)c(F)c2)C1 (single isomer, unassigned) [Example 81] to CN([C@@H]1CCOC1)[C@@]1(CCc2cccc(C(F)(F)F)c2)CCCN(c2cc(F)c(S(=O)(=O)Nc3ccncn3)c(F)c2)C1 (single isomer, unassigned) [Example 82], the IC50 rises from 0.681 nM to 657 nM (960-fold). The first is the more potent here.

First: CN([C@H]1CCOC1)[C@]1(CCc2cccc(C(F)(F)F)c2)CCCN(c2cc(F)c(S(=O)(=O)Nc3ccncn3)c(F)c2)C1 (single isomer, unassigned) [Example 83]
Second: CN(C)[C@@]1(CCc2ccc(C3CC3)c(C(F)(F)F)c2)CCCN(c2cc(F)c(S(=O)(=O)Nc3ccncn3)c(F)c2)C1 (single isomer, unassigned) [Example 86]
The IC50 of the first is 2.2-fold lower: 1.68 nM for the first, 3.78 nM for the second. The first is the more potent here.

First: Cc1ccc(CC[C@]2(N(C)C)CCCN(c3cc(F)c(S(=O)(=O)Nc4ccncn4)c(F)c3)C2)cc1C(F)(F)F (single isomer, unassigned) [Example 84, formate]
Second: Cc1ccc(CC[C@@]2(N(C)C)CCCN(c3cc(F)c(S(=O)(=O)Nc4ccncn4)c(F)c3)C2)cc1C(F)(F)F (single isomer, unassigned) [Example 85]
The IC50 of the first is 88-fold lower: 2.84 nM for the first, 250 nM for the second.

First: CN(C)[C@]1(CCc2ccc(C3CC3)c(C(F)(F)F)c2)CCCN(c2cc(F)c(S(=O)(=O)Nc3ccncn3)c(F)c2)C1 (single isomer, unassigned) [Example 87]
Second: CN(C)[C@@]1(CCc2cccc(C3CC3)c2)CCCN(c2cc(F)c(S(=O)(=O)Nc3ccncn3)c(F)c2)C1 (single isomer, unassigned) [Example 88, formate]
The IC50 of the first is 210-fold higher: 682 nM for the first, 3.29 nM for the second.

Work on CN(C)[C@]1(CCc2cccc(C3CC3)c2)CCCN(c2cc(F)c(S(=O)(=O)Nc3ccncn3)c(F)c2)C1 (single isomer, unassigned) [Example 89, formate] yielded an IC50 of 567 nM.
